Test results reported in patent US9856225B2, “Substituted phenazines as antimicrobial agents” (University of Florida Research Foundation, Incorporated, priority 2013, dated 2018).
≈ marks a conversion by molar mass, not a printed value. Where “and” joins values, the source holds several entries; their conditions need not be identical. Equal entries are not always repeated. Where two headings read alike, the source gives them in different places. Marks after values point to notes of the source that are not given here.

Tests used:
[1] = system: Pseudomonas aeruginosa (PAO1); assay: MIC broth microdilution (CLSI), Luria Broth; format: cell-based; details: Table 1, PAO1, read-out: Pseudomonas aeruginosa MIC
Description: (§1) Antibiotic Susceptibility Tests (MIC Assay Protocol). The minimum inhibitory concentration (MIC) for each compound described herein was determined by the broth microdilution method as recommended by the Clinical and Laboratory Standards Institute (CLSI) (Clinical and Laboratory Standards Institute. 2009. Methods for dilution antimicrobial susceptibility tests for bacteria that grow aerobically; approved standard, eighth edition (M7-A8)). In a 96-well plate, eleven two-fold serial dilutions of each compound were made in a final volume of 100 μL Luria Broth (one column served as a blank; see the MIC assay described herein). Each well was inoculated with 10^5 bacterial cells at the initial time of incubation, prepared from a fresh log phase culture (OD600 of 0.5). […] The concentration range tested for each compound during this study was 0.10 to 100 μM. DMSO served as the vehicle and negative control in each microdilution MIC assay. DMSO was serially diluted at the same concentration as the compounds with a top concentration of 1% v/v. Bacterial strains used: Staphylococcus aureus (ATCC 25923), Staphylococcus epidermidis (ATCC 12228) and Pseudomonas aeruginosa (PAO1). Kanamycin was used as a positive control against Staphylococcus aureus and Staphylococcus epidermidis.

[2] = system: Staphylococcus aureus (ATCC 25923); assay: MIC broth microdilution (CLSI), Luria Broth; format: cell-based; details: Staphylococcus aureus, ATCC25923, Table 1, ATCC 25923, read-out: Staphylococcus aureus MIC
Description: as §1

[3] = system: Staphylococcus epidermidis (ATCC 12228); assay: MIC broth microdilution (CLSI), Luria Broth; format: cell-based; details: ATCC12228, Table 1, ATCC 12228, read-out: Staphylococcus epidermidis MIC
Description: as §1

[4] = Stability of DMSO stock solutions; format: physicochemical
Description: Compound storage. Solid stocks of the compounds described herein were stored at −80° C. in vials sealed with PARAFILM. Between 2.0 and 4.5 milligrams of each compound was weighed out, and a 10 mM DMSO stock solution of each compound were prepared. DMSO stock solutions were stored at room temperature in the dark (e.g., wrapped in aluminum foil). At this concentration, a few compounds required gentle heating to completely solubilize. DMSO stock solutions were not subjected to any freeze-thaw cycles to prevent compound breakdown. The compounds were stable in DMSO for several weeks under these mild storage conditions, with the exception of pyocyanin. Pyocyanin is unstable in DMSO at room temperature after one day. […] DMSO stock solutions of about 2 milligrams of pyocyanin were made fresh each day. The hydrolysis stability of select compounds was also tested, e.g., by subjecting these compounds to conditions mimicking the biofilm assays described herein. In one set of exemplary experiments, 3.2 to 4.5 mgs of each of compounds 18a, 12a, 23a, and 21 were treated with 1 mL of sterile water to form a mixture. […] After 24 hours, each of the mixtures was extracted with dichloromethane and evaluated, using TLC and NMR, for hydrolysis of each of compounds 18a, 12a, 23a, and 21 to compound 11.

[5] = Solubility observation; format: physicochemical
Description: 6,9-Dibromophenazine-1-carboxylic acid (18) and methyl-6,9-dibromophenazine-1-carboxylate (35). 2-((2,5-Dibromophenyl)amino)-3-nitrobenzoic acid (497 mg, 1.16 mmol) was dissolved in 19 mL 2 N aqueous sodium hydroxide and treated with sodium borohydride (131 mg, 3.47 mmol). The resulting reaction mixture was then refluxed for 1.5 hours. After this time, the reaction was made acidic with 2 N aqueous hydrochloric acid, and the resulting precipitate was filtered. The filter cake was then washed with hot chloroform to afford 143 mg (32% yield) of 6,9-dibromophenazine-1-carboxylic acid 18 as a yellow-green solid. […] A small portion of this material was converted to methyl ester 35 for characterization purposes using the following procedure. To a stirred suspension of 6,9-dibromophenazine-1-carboxylic acid (3.7 mg, 0.0097 mmol) in 0.4 mL dimethylformamide was sequentially added potassium carbonate (22 mg, 0.16 mmol) and one drop of iodomethane. The reaction was allowed to stir overnight at room temperature. The reaction was then transferred to a separatory funnel and partitioned between ethyl acetate and water. The organic layer was then washed with brine and collected. […] The crude material was taken up in chloroform and passed over a silica plug to furnish 3.8 mg (quantitative yield) of methyl-6,9-dibromophenazine-1-carboxylate 35 as a yellow solid.

[6] = system: MRSA-2 biofilms; assay: Biofilm eradication assay (MBEC); format: cell-based, Staphylococcus aureus; details: for Biofilm Eradication MBEC: MRSA-2
Description: Biofilm eradication assays. […] The protocol for the biofilm eradication assays was essentially the same as the protocols reported in Eun et al., J. Am. Chem. Soc., 2012, 134, 11322 and Ceri et al., J. Clin. Microbiol., 1999, 37, 1771. Biofilm eradication assays were essentially biofilm dispersion assays with the addition of a final treatment with fresh media (and incubation at 37° C. for 24 hours) instead of crystal violet staining. This final incubation allowed viable cells within the biofilm to grow. At the end of this final incubation in biofilm eradication assays, microtiter wells void of turbidity represented eradicated biofilms, and the lowest concentration at which no visible growth was observed was referred to as the minimum biofilm eradication concentration (MBEC). Potent biofilm eradicating small molecules are extremely rare (Fletcher et al., Tetrahedron, 2014, 70, 6373; Jennings et al., ChemBioChem, 2014, 15, 2211). For these experiments, MRSA-2 was selected as the model since MRSA-2 is a multidrug-resistant, biofilm-forming clinical isolate of Staphylococcus aureus (Priyaja et al., Cytotechnol., 2014, doi: 10.1007/s10616-014-9765-5).

[7] = system: MRSA-2; assay: MIC against MRSA-2; format: cell-based; details: Staphylococcus aureus, read-out: MIC against MRSA-2
Description: as §1, with “Kanamycin was used as a positive control against Staphylococcus aureus and Staphylococcus epidermidis.” left out
(§2) Vancomycin's activity against MRSA-2. Vancomycin was also evaluated against MRSA-2 since vancomycin has been considered to be the drug of last resort against MRSA infections.

[8] = system: S. aureus ATCC 29213; assay: MIC against S. aureus ATCC 29213; format: cell-based; details: Staphylococcus aureus, ATCC29213
Description: as §2

solubility (in words) [5] | SMILES | MIC [1] [µM] | MIC ([2]; range tested 0.10 to 100 μM) [µM] | MIC [2] [µg/mL] | MIC [3] | stability in DMSO ([4]; 10 mM DMSO stock, room temperature, dark) | decomposition in d6-DMSO (NMR) ([4]; after 8 hours at room temperature) | Biofilm Eradication MBEC [6] | Biofilm Eradication MBEC ([6]; listed as vancomycin) | MBEC:MIC ratio ([6]; MRSA-2 biofilm vs planktonic) | MIC [7] [µM] | MIC [8] [µM]
 | Cn1c2cccc(=O)c-2nc2ccccc21 [Compound 1, Pyocyanin, reference compound] | > 100 | 50 | 10.6 | 50 µM and 10.6 µg/mL | unstable | significant decomposition |  |  |  |  | 
extremely low solubility | O=C(O)c1cccc2nc3c(Br)ccc(Br)c3nc12 [Compound 18, 6,9-Dibromophenazine-1-carboxylic acid] | > 100 | > 100 | > 38.3 |  |  |  |  |  |  |  | 
 | CN[C@H](CC(C)C)C(=O)N[C@H]1C(=O)N[C@@H](CC(N)=O)C(=O)N[C@H]2C(=O)N[C@H]3C(=O)N[C@H](C(=O)N[C@H](C(=O)O)c4cc(O)cc(O)c4-c4cc3ccc4O)[C@H](O)c3ccc(c(Cl)c3)Oc3cc2cc(c3O[C@@H]2O[C@H](CO)[C@@H](O)[C@H](O)[C@H]2O[C@H]2C[C@](C)(N)[C@H](O)[C@H](C)O2)Oc2ccc(cc2Cl)[C@H]1O [Vancomycin, reference compound] |  |  |  |  |  |  | >2,000^d μM | > 2,000 μM | > 2,564 | 0.78 (≈ 1.13 µg/mL) | 0.39 to 0.78 (≈ 0.565 to 1.13 µg/mL)
